Key:
Assay type in all cases: physicochemical
[1] = Wet high-pressure grinding of crystals (Microfluidizer): particle size distribution of ground crystals; conditions: wet high-pressure grinding in water, 100 MPa, laser diffraction (wet measurement)
Protocol: Crystals were charged into Microfluidizer Model M110Y (mfd. by Mizuho Industrial Co., Ltd.) together with water and subjected to high-pressure grinding. […] In this case, the α type crystals were solidified during the grinding. […] The particle size distribution was measured by dispersing the ground crystals in water in an agate mortar. A laser diffraction particle size distribution meter (wet measurement) was used for measuring the particle size distribution.

[2] = Dry pneumatic grinding of crystals 1 (A-O Jet Mill): amount adhering to inside of apparatus; conditions: 7 g crystals charged, pneumatic grinding at 0.49 MPa
From the text: Crystals were charged into an A-O Jet Mill (mfd. by Seishin Enterprise Co., Ltd.) and subjected to pneumatic grinding at a forcing pressure of 0.49 MPa and a grinding pressure of 0.49 MPa.

[3] = Crystal type stability on grinding / in aqueous suspension; conditions: for change of crystal type during grinding: α: wet grinding under high-pressure conditions, suspended in water, β: pneumatic and wet grinding
From the text: When the α type crystals were subjected to pneumatic grinding, they adhered remarkably to the inside of a grinding apparatus. Therefore, their pulverization to a desirable size by one run of grinding operation was difficult, so that it was necessary to grind them repeatedly several times. Since it often became necessary to remove the crystals adhering to the inside, the grinding efficiency and the yield were low.
When the β type crystals were subjected to pneumatic grinding, they hardly adhered to the inside of a grinding apparatus, were easy to handle in a process of their formulation into a pharmaceutical preparation, and could be continuously ground. The β type crystals could easily be ground also by a wet grinding method and made it possible to produce finer powder that could be formulated into a pharmaceutical preparation.
The β type crystals of the present invention may be obtained also by stirring phosphate or a type crystals of the isoxazole derivative of the formula 1 in a suspended state in water for a definite time. In the case of the phosphate, the β type crystals could be obtained, for example, by stirring the phosphate at 50° C. for about 5 hours. […] So long as seed crystals for the β type crystals are used, it is also possible to produce the β type crystals by using any of hydrophobic organic solvents such as aromatic hydrocarbons (e.g. toluene and benzene), ethers (e.g. t-butyl methyl ether, diisopropyl ether and diethyl ether), aliphatic hydrocarbons (e.g. cyclohexane, hexane and heptane), halogen-containing solvents (e.g. chloroform, methylene chloride and 1,2-dichloroethane) and esters (e.g. ethyl acetate). For example, the isoxazole derivative of the formula 1 may be crystallized by dissolving the derivative in a mixed solvent of toluene and 2-propanol and adding hexane thereto.

[4] = Dry pneumatic grinding of crystals 2 (Jet O Mill): particle size distribution of ground crystals; conditions: one run of dry pneumatic grinding, 0.44-0.49 MPa, laser diffraction (dry measurement)
From the text: Crystals were charged into a Jet 0 Mill Model JOMO101 (mfd. by Seishin Enterprise Co., Ltd.) and subjected to pneumatic grinding at a forcing pressure and a grinding pressure (which had been set at the same pressure) of 0.44 MPa to 0.49 MPa. […] A laser diffraction particle size distribution meter (dry measurement) was used for measuring the particle size distribution. It has already been confirmed that repeated grinding or the increase of the grinding pressure is necessary for further particle size reduction.

Undersize particle D50% particle size ([1]; D50%) [μm] | Undersize particle D50% particle size ([1]; first D50% line) [μm] | Adhering amount [2] [g] | change of crystal type during grinding [3] | Undersize particle D50% particle size ([4]; D50%) [μm] | Undersize particle D50% particle size ([4]; first D50% line) [μm] | Structure (SMILES) | thermodynamic stability of crystal type ([3]; stirring phosphate or α type crystals suspended in water gives β type crystals)
58.1 | 26.1 | 2.06 | changed to the β type crystals | 79.3 | 27.6 | C[C@@H](c1ccc(-c2ccccc2)c(F)c1)c1cc(/N=C(/N)N2CCOCC2)on1 [α type crystals, 3-[(1S)-1-(2-fluorobiphenyl-4-yl)ethyl]-5-{[amino(morpholin-4-yl)methylene]amino}isoxazole] | 
3.2 | 1.7 | 0.00 | did not change the crystal type | 10.2 | 4.7 | C[C@@H](c1ccc(-c2ccccc2)c(F)c1)c1cc(/N=C(/N)N2CCOCC2)on1 [β type crystals, 3-[(1S)-1-(2-fluorobiphenyl-4-yl)ethyl]-5-{[amino(morpholin-4-yl)methylene]amino}isoxazole] | thermodynamically more stable than the α type crystals

Reference: patent publication US20080311212A1, “CRYSTALLINE ISOXAZOLE DERIVATIVE AND PHARMACEUTICAL PREPARATION THEREOF” (Dainippon Sumitomo Pharma Co., Ltd., priority 2001, published 2008)
